Calls of active or inactive are those of the source. The rule behind the calls is not given here.
Tested on: CCRIS mutagenicity, Ames/micronucleus/aberration tests
Test: CCRIS mutagenicity studies
[1] = Test System: AMES SALMONELLA TYPHIMURIUM, Strain/Indicator: TA100, Metabolic Activation: NONE, Method: PREINCUBATION

**Q.** Which results are given for CCCCCNCCCCC?
**A.** mutagenic call (Test System: AMES SALMONELLA TYPHIMURIUM, Strain/Indicator: TA98, Metabolic Activation: HAMSTER, LIVER, S-9, AROCLOR 1254 (10%), Method: PREINCUBATION): inactive; negative; mutagenic call (Test System: AMES SALMONELLA TYPHIMURIUM, Strain/Indicator: TA98, Metabolic Activation: NONE, Method: PREINCUBATION): inactive; negative; mutagenic call (Test System: AMES SALMONELLA TYPHIMURIUM, Strain/Indicator: TA98, Metabolic Activation: RAT, LIVER, S-9, AROCLOR 1254 (10%), Method: PREINCUBATION): inactive; negative; mutagenic call (Test System: AMES SALMONELLA TYPHIMURIUM, Strain/Indicator: TA100, Metabolic Activation: HAMSTER, LIVER, S-9, AROCLOR 1254 (10%), Method: PREINCUBATION): inactive; negative; mutagenic call [1]: inactive; negative; mutagenic call (Test System: AMES SALMONELLA TYPHIMURIUM, Strain/Indicator: TA100, Metabolic Activation: RAT, LIVER, S-9, AROCLOR 1254 (10%), Method: PREINCUBATION): inactive; negative; mutagenic call (Test System: AMES SALMONELLA TYPHIMURIUM, Strain/Indicator: TA1535, Metabolic Activation: HAMSTER, LIVER, S-9, AROCLOR 1254 (10%), Method: PREINCUBATION): inactive; negative; mutagenic call (Test System: AMES SALMONELLA TYPHIMURIUM, Strain/Indicator: TA1535, Metabolic Activation: NONE, Method: PREINCUBATION): inactive; negative; mutagenic call (Test System: AMES SALMONELLA TYPHIMURIUM, Strain/Indicator: TA1535, Metabolic Activation: RAT, LIVER, S-9, AROCLOR 1254 (10%), Method: PREINCUBATION): inactive; negative; mutagenic call (Test System: AMES SALMONELLA TYPHIMURIUM, Strain/Indicator: TA1537, Metabolic Activation: HAMSTER, LIVER, S-9, AROCLOR 1254 (10%), Method: PREINCUBATION): inactive; negative; mutagenic call (Test System: AMES SALMONELLA TYPHIMURIUM, Strain/Indicator: TA1537, Metabolic Activation: NONE, Method: PREINCUBATION): inactive; negative; mutagenic call (Test System: AMES SALMONELLA TYPHIMURIUM, Strain/Indicator: TA1537, Metabolic Activation: RAT, LIVER, S-9, AROCLOR 1254 (10%), Method: PREINCUBATION): inactive; negative

**Q.** How did the mutagenic call (Test System: AMES SALMONELLA TYPHIMURIUM, Strain/Indicator: TA100, Metabolic Activation: RAT, LIVER, MICROSOMES, Method: PREINCUBATION) turn out when ClC[C@@H](Br)CBr was run?
**A.** Its mutagenic call is “active; positive”.

**Q.** Which mutagenic call (Test System: UDS RAT HEPATOCYTES, Strain/Indicator: THY INCORP (18-20 HR), Metabolic Activation: NONE, Method: LIQUID SCINTILLATION COUNTING) does the source give for C[C@]12CC[C@H]3C(=CCc4cc(O)ccc43)[C@@H]1CCC2=O here?
**A.** Its mutagenic call is “inactive; negative”.

**Q.** How did the mutagenic call [1] turn out when C[Si](C)(C)CN=[N+]=[N-] was run?
**A.** The mutagenic call was “inactive; negative”.

**Q.** And the mutagenic call (Test System: AMES SALMONELLA TYPHIMURIUM, Strain/Indicator: TA100, Metabolic Activation: RAT, LIVER, S-9, PCB, Method: PREINCUBATION)?
**A.** The mutagenic call was “active; positive”.

**Q.** Which mutagenic call (Test System: AMES SALMONELLA TYPHIMURIUM, Strain/Indicator: TA97, Metabolic Activation: NONE, Method: STANDARD PLATE) does the source give for ClC(Cl)(Cl)Br here?
**A.** The mutagenic call was “active; positive”.

**Q.** And the mutagenic call (Test System: AMES SALMONELLA TYPHIMURIUM, Strain/Indicator: TA97, Metabolic Activation: RAT, LIVER, S-9, AROCLOR 1254, Method: STANDARD PLATE)?
**A.** The mutagenic call was “active; positive”.

**Q.** What about the mutagenic call (Test System: AMES SALMONELLA TYPHIMURIUM, Strain/Indicator: TA98, Metabolic Activation: NONE, Method: STANDARD PLATE) of the same compound?
**A.** Its mutagenic call is “active; positive”.

**Q.** What about the mutagenic call (Test System: AMES SALMONELLA TYPHIMURIUM, Strain/Indicator: TA98, Metabolic Activation: RAT, LIVER, S-9, AROCLOR 1254, Method: STANDARD PLATE) of the same compound?
**A.** Its mutagenic call is “inactive; negative”.

**Q.** And the mutagenic call (Test System: AMES SALMONELLA TYPHIMURIUM, Strain/Indicator: TA100, Metabolic Activation: NONE, Method: STANDARD PLATE)?
**A.** The mutagenic call was “inactive; negative”.

**Q.** What about the mutagenic call (Test System: AMES SALMONELLA TYPHIMURIUM, Strain/Indicator: TA100, Metabolic Activation: RAT, LIVER, S-9, AROCLOR 1254, Method: STANDARD PLATE) of the same compound?
**A.** The mutagenic call was “inactive; negative”.

**Q.** And the mutagenic call (Test System: AMES SALMONELLA TYPHIMURIUM, Strain/Indicator: TA104, Metabolic Activation: NONE, Method: STANDARD PLATE)?
**A.** The mutagenic call was “active; positive”.

**Q.** What about the mutagenic call (Test System: AMES SALMONELLA TYPHIMURIUM, Strain/Indicator: TA104, Metabolic Activation: RAT, LIVER, S-9, AROCLOR 1254, Method: STANDARD PLATE) of the same compound?
**A.** The mutagenic call was “active; positive”.

— PubChem BioAssay AID1259407 (Chemical Carcinogenesis Research Information System (CCRIS), 2018)
